Data taken from a flash point compilation (Sun et al. 2020).
Where a name gives a salt, the structure may show the parent alone.

flash point [°C]	Structure (SMILES)
107.00	CCCCCCCCCCc1ccccc1 [decylbenzene]
41.00	CCCCC(Cl)Cl [1,1-dichloropentane]
129.00	OCCCCCO [pentane-1,5-diol]
-7.00	CCN(CC)CC [N,N-diethylethanamine]
26.00	CCC(C)(C)OC(C)=O [2-methylbutan-2-yl acetate]
63.00	COC(F)(F)C(Cl)Cl [2,2-dichloro-1,1-difluoro-1-methoxyethane]
129.00	OCCOCc1ccccc1 [2-phenylmethoxyethanol]
-23.00	CC(C)[CH2][Al]([CH2]C(C)C)[CH2]C(C)C [tris(2-methylpropyl)alumane]
-20.00	CCOC=O [ethyl formate]
62.00	NCCCCCN [pentane-1,5-diamine]
180.00	c1ccc(N(c2ccccc2)c2ccccc2)cc1 [N,N-diphenylaniline]
-34.00	CC(C)S [propane-2-thiol]
48.00	O=CC1CCC=CO1 (stereo unspecified) [3,4-dihydro-2H-pyran-2-carbaldehyde]
102.00	CC(C)(C)c1ccc(OCC2CO2)cc1 (stereo unspecified) [2-[(4-tert-butylphenoxy)methyl]oxirane]
29.00	CC(C)CNCC(C)C [2-methyl-N-(2-methylpropyl)propan-1-amine]
229.00	O=c1[nH]cnc2c1ncn2[C@H]1C[C@H](O)[C@@H](COP(=O)(O)OP(=O)(O)O)O1
153.00	CCCCCCCCCCCCCCCCCC(=O)OC [methyl octadecanoate]
18.00	CCCCOC=O [butyl formate]
197.00	CCCCCCCCCc1ccc(OCCOCCOCCOCCOCCOCCOCCOCCOCCO)cc1
232.00	O=C(OCCOCCOC(=O)c1ccccc1)c1ccccc1 [2-(2-benzoyloxyethoxy)ethyl benzoate]
157.00	C1=CC(c2ccc(C3CC=CCC3)cc2)CCC1 (stereo unspecified) [1-cyclohex-2-en-1-yl-4-cyclohex-3-en-1-ylbenzene]
213.00	CCCCCCCCc1ccc(Nc2ccc(CCCCCCCC)cc2)cc1 [4-octyl-N-(4-octylphenyl)aniline]
142.00	Cl[Si](Cl)(c1ccccc1)c1ccccc1 [dichloro(diphenyl)silane]

flash point [°C]	Structure (SMILES)
85.00	CCCCCCCCCC=O [decanal]
91.00	C=C(C)C(=O)OCCCCCCCC [octyl 2-methylprop-2-enoate]
20.00	CCCCCCS [hexane-1-thiol]
60.00	CCCCC(CC)CN (stereo unspecified) [2-ethylhexan-1-amine]
63.00	Cc1cc(C)c(C)c(C)c1 [1,2,3,5-tetramethylbenzene]
6.00	CC(=O)C(C)C [3-methylbutan-2-one]
26.00	C=CCCCCCCC [non-1-ene]
44.00	CC1CNCC(C)O1 (stereo unspecified) [2,6-dimethylmorpholine]
165.00	Oc1ccc(O)cc1 [benzene-1,4-diol]
45.00	CCN(O)CC [N,N-diethylhydroxylamine]
146.00	CCCCCCCCCCCCCCCC[Si](Cl)(Cl)Cl [trichloro(hexadecyl)silane]
63.00	Nc1ccc(F)cc1F [2,4-difluoroaniline]
24.00	CC1COC(C)CO1 (stereo unspecified) [2,5-dimethyl-1,4-dioxane]
32.00	ClC1CCCCC1 [chlorocyclohexane]
110.00	CCOC(=O)CC#N [ethyl 2-cyanoacetate]
-18.00	C1=COCCC1 [3,4-dihydro-2H-pyran]
101.00	C=C(C)C(=O)OCCOC(=O)C(=C)C [2-(2-methylprop-2-enoyloxy)ethyl 2-methylprop-2-enoate]
121.00	COCC(C)OCC(C)OC(C)CO (stereo unspecified) [2-[1-(1-methoxypropan-2-yloxy)propan-2-yloxy]propan-1-ol]
53.00	CCCOCCCO [3-propoxypropan-1-ol]
84.00	Cc1ccccc1C#N [2-methylbenzonitrile]
-53.00	C[CH2][Al]([CH2]C)[CH2]C [triethylalumane]
43.00	SC1CCCCC1 [cyclohexanethiol]
27.00	CC(Cl)=CCCl [1,3-dichlorobut-2-ene]

flash point [°C]	Structure (SMILES)
90.00	S=C([S-])NCCNC(=S)[S-].[Zn+2] [zinc;N-[2-(sulfidocarbothioylamino)ethyl]carbamodithioate]
60.00	Nc1ccccc1F [2-fluoroaniline]
150.00	CCN(C(=O)N(CC)c1ccccc1)c1ccccc1 [1,3-diethyl-1,3-diphenylurea]
113.00	C/C=C/c1ccc(O)c(OC)c1 [2-methoxy-4-[(E)-prop-1-enyl]phenol]
171.00	CCCCC(CC)COC(=O)COc1ccc(Cl)cc1Cl (stereo unspecified) [2-ethylhexyl 2-(2,4-dichlorophenoxy)acetate]
79.00	C=CCCCCCCCCCCC [tridec-1-ene]
93.00	CCCCCCCCCCCO [undecan-1-ol]
78.00	CCCCCCCCC1CO1 (stereo unspecified) [2-octyloxirane]
42.00	C=Cc1ccccn1 [2-ethenylpyridine]
63.00	CCCCC[Si](Cl)(Cl)Cl [trichloro(pentyl)silane]
149.00	CCCCCCCCCCCCCCCCCCN [octadecan-1-amine]
160.00	O=C(O)CCC(=O)O [butanedioic acid]
52.00	CCC(C)c1ccccc1 (stereo unspecified) [butan-2-ylbenzene]
59.00	CCC(C)=NO [N-butan-2-ylidenehydroxylamine]
52.00	Cc1ccccc1Cl [1-chloro-2-methylbenzene]
91.00	Cl[Si](Cl)(Cl)C1CCCCC1 [trichloro(cyclohexyl)silane]
26.00	CCCCCOC=O [pentyl formate]
17.00	CCCNCCC [N-propylpropan-1-amine]
127.00	CCCC(O)C(CC)CO (stereo unspecified) [2-ethylhexane-1,3-diol]
46.00	CCCCCCCS [heptane-1-thiol]
85.00	CCCCCSCCCCC [1-pentylsulfanylpentane]
-18.00	C#C [acetylene]

Structure (SMILES)	flash point [°C]
O=C(Cl)CCl [2-chloroacetyl chloride]	100.00
C=CC(=O)OCC(C)C [2-methylpropyl prop-2-enoate]	30.00
CC(C)CCCCCCCOC(=O)c1ccccc1C(=O)OCCCCCCCC(C)C [bis(8-methylnonyl) benzene-1,2-dicarboxylate]	232.00
S=C=S [methanedithione]	-30.00
CCCCCCCCCCCCCl [1-chlorododecane]	113.00
COS(=O)(=O)c1ccc(C)cc1 [methyl 4-methylbenzenesulfonate]	152.00
Cc1cccc(C)c1N [2,6-dimethylaniline]	91.00
CC(C)(C)c1ccccc1O [2-tert-butylphenol]	110.00
Nc1ccc([N+](=O)[O-])cc1[N+](=O)[O-] [2,4-dinitroaniline]	224.00
CCCCCO[N+](=O)[O-] [pentyl nitrate]	49.00
Oc1ccccc1Br [2-bromophenol]	42.00
CCCCCCCCCCCCCOC(=O)c1ccccc1C(=O)OCCCCCCCCCCCCC [ditridecyl benzene-1,2-dicarboxylate]	238.00
CC(=O)OC(C)=O [acetyl acetate]	49.00
CC(C)c1cc(OO)cc(C(C)C)c1 [1-hydroperoxy-3,5-di(propan-2-yl)benzene]	79.00
Cc1ccc([N+](=O)[O-])cc1C [1,2-dimethyl-4-nitrobenzene]	107.00
O=CC(Cl)(Cl)Cl [2,2,2-trichloroacetaldehyde]	75.00
C=COC(C)=O [ethenyl acetate]	-8.00

Structure (SMILES)	flash point [°C]
CC(C)C#N [2-methylpropanenitrile]	8.00
c1ccc(Oc2ccccc2)cc1 [phenoxybenzene]	115.00
ClCCOCOCCCl [1-chloro-2-(2-chloroethoxymethoxy)ethane]	110.00
C=CC(=O)OCCN(C)C [2-(dimethylamino)ethyl prop-2-enoate]	29.00
CCOP(=S)(OCC)SCSC(C)(C)C	88.00
C=CCOC(=O)COCCC(C)C [prop-2-enyl 2-(3-methylbutoxy)acetate]	68.00
COCCOC(C)=O [2-methoxyethyl acetate]	44.00
Nc1cccc2ccccc12 [naphthalen-1-amine]	157.00
OCC(O)CCl (stereo unspecified) [3-chloropropane-1,2-diol]	59.00
CCN(CC)c1ccccc1 [N,N-diethylaniline]	85.00
Nc1ccc(Cc2ccc(N)cc2)cc1 [4-[(4-aminophenyl)methyl]aniline]	221.00
CCc1cccc(CC)c1N(COC)C(=O)CCl [2-chloro-N-(2,6-diethylphenyl)-N-(methoxymethyl)acetamide]	137.00
Clc1cccc(C(Cl)(Cl)Cl)n1 [2-chloro-6-(trichloromethyl)pyridine]	100.00
O=C1CCO1 [oxetan-2-one]	70.00
CC(=O)CC(C)(C)O [4-hydroxy-4-methylpentan-2-one]	52.00
CCCCOCCOCCO [2-(2-butoxyethoxy)ethanol]	78.00
